Results: patent publication US11413250B2, “Shape changing drug delivery devices and methods” (Incept, LLC, priority 2015, dated 2022)

Settings: in vivo test of Example 17
Protocol: The tolerability, pharmacokinetics, and pharmacodynamics of the formulations from examples 1 and 2 were evaluated in Dutch belted rabbits through 6 months. 112 eyes of naïve Dutch belted rabbits ([…]) were bilaterally dosed with either a necked fiber or a coiled fiber and were sacrificed at 1, 3 and 6 months to test for biocompatibility or pharmacokinetics.

CNC(=O)c1ccccc1Sc1ccc2c(/C=C/c3ccccn3)n[nH]c2c1 [Axitinib]
Toxicity of the delivered amounts: not toxic
